Patent US8222246B2, “Substituted isoxazoles” (Hoffmann-La Roche Inc., priority 2009, dated 2012)
pKi: −log10 of the molar value.

The compounds below were run against T1, GABA A α5 (α5β3γ2) (Homo sapiens, UniProt P18507+P31644) (assay: [3H]flumazenil competition binding assay, human GABA A α5 receptors in HEK293 cells). Details: competition for [3H]flumazenil (0.5 nM); HEK293 cells expressing human (transiently transfected) receptors; means of two determinations; read-out: hKi GABA A α5.
T1 construct: expressed in transfected cells; host or cells: HEK293 (transiently transfected), membranes
Protocol: Membrane Preparation and Binding Assay
The affinity of compounds at GABA A receptor subtypes was measured by competition for [3H]flumazenil (85 Ci/mmol; Roche) binding to HEK293 cells expressing rat (stably transfected) or human (transiently transfected) receptors of composition α1β3γ2, α2β3γ2, α3β3γ2 and α5β3γ2.
Cell pellets were suspended in Krebs-tris buffer (4.8 mM KCl, 1.2 mM CaCl2, 1.2 mM MgCl2, 120 mM NaCl, 15 mM Tris; pH 7.5; binding assay buffer), homogenized by polytron for ca. 20 sec on ice and centrifuged for 60 min at 4° C. (50000 g; Sorvall, rotor: SM24=20000 rpm). The cell pellets were resuspended in Krebs-tris buffer and homogenized by polytron for ca. 15 sec on ice. Protein was measured (Bradford method, Bio-Rad) and aliquots of 1 mL were prepared and stored at −80° C.
Radioligand binding assays were carried out in a volume of […] (96-well plates) which contained […] of cell membranes, [3H]flumazenil at a concentration of 1 nM for α1, α2, α3 subunits and 0.5 nM for α5 subunits and the test compound in the range of […]. Nonspecific binding was defined by 10^−5 M diazepam and typically represented less than 5% of the total binding. Assays were incubated to equilibrium for 1 hour at 4° C. and harvested onto GF/C uni-filters (Packard) by filtration using a Packard harvester and washing with ice-cold wash buffer (50 mM Tris; pH 7.5). After drying, filter-retained radioactivity was detected by liquid scintillation counting. Ki values were calculated using Excel-Fit (Microsoft) and are the means of two determinations.
Representative test results, obtained by the above described assay measuring binding affinity to HEK293 cells expressing human (h) receptors, are shown in table 1 below.

Row | SMILES | pKi
1 | CCCCc1noc(CO)c1COc1ccc(C(=O)NC(C)C)cn1 [Example 49, 6-(3-Butyl-5-hydroxymethyl-isoxazol-4-ylmethoxy)-N-isopropyl-nicotinamide] | 7.80
2 | O=C(NCC1CC1)c1ccc(OCc2c(-c3ccc(F)c(F)c3)noc2CO)nc1 [Example 30, N-Cyclopropylmethyl-6-[3-(3,4-difluoro-phenyl)-5-hydroxymethyl-isoxazol-4-ylmethoxy]-nicotinamide] | 8.40
3 | CC(C)(CO)NC(=O)c1ccc(OCc2c(-c3ccc(Cl)cc3)noc2CO)nc1 [Example 23, 6-[3-(4-Chloro-phenyl)-5-hydroxymethyl-isoxazol-4-ylmethoxy]-N-(2-hydroxy-1,1-dimethyl-ethyl)-nicotinamide] | 8.41
4 | CC(C)(C)NC(=O)c1ccc(OCc2c(-c3ccc(F)c(F)c3)noc2CO)nc1 [Example 40, N-tert-Butyl-6-[3-(3,4-difluoro-phenyl)-5-hydroxymethyl-isoxazol-4-ylmethoxy]-nicotinamide] | 7.93
5 | CC[C@H](CO)NC(=O)c1ccc(OCc2c(-c3ccc(F)c(F)c3)noc2CO)nc1 [Example 37, 6-[3-(3,4-Difluoro-phenyl)-5-hydroxymethyl-isoxazol-4-ylmethoxy]-N-([R]-1-hydroxymethyl-propyl)-nicotinamide] | 8.36
6 | CC[C@H](CO)NC(=O)c1ccc(OCc2c(-c3ccc(F)cc3)noc2CO)nc1 [Example 14, 6-[3-(4-Fluoro-phenyl)-5-hydroxymethyl-isoxazol-4-ylmethoxy]-N-((R)-1-hydroxymethyl-propyl)-nicotinamide] | 8.46
7 | O=C(NCC(F)(F)C(F)(F)F)c1ccc(OCc2c(-c3ccc(F)c(F)c3)noc2CO)nc1 [Example 35, 6-[3-(3,4-Difluoro-phenyl)-5-hydroxymethyl-isoxazol-4-ylmethoxy]-N-(2,2,3,3,3-pentafluoro-propyl)-nicotinamide] | 8.17
8 | CCCCc1noc(CO)c1COc1ccc(C(=O)NC2CCC2)cn1 [Example 52, 6-(3-Butyl-5-hydroxymethyl-isoxazol-4-ylmethoxy)-N-cyclobutyl-nicotinamide] | 7.86
9 | CC(C)(CO)NC(=O)c1ccc(OCc2c(-c3ccc(F)c(F)c3)noc2CO)nc1 [Example 34, 6-[3-(3,4-Difluoro-phenyl)-5-hydroxymethyl-isoxazol-4-ylmethoxy]-N-(2-hydroxy-1,1-dimethyl-ethyl)-nicotinamide] | 7.87
10 | CC(C)(CO)NC(=O)c1ccc(OCc2c(-c3ccc(F)cc3)noc2CO)nc1 [Example 12, 6-[3-(4-Fluoro-phenyl)-5-hydroxymethyl-isoxazol-4-ylmethoxy]-N-(2-hydroxy-1,1-dimethyl-ethyl)-nicotinamide] | 8.00
11 | CN(C)C(=O)c1ccc(OCc2c(-c3ccc(Cl)cc3)noc2CO)nc1 [Example 22, 6-[3-(4-Chloro-phenyl)-5-hydroxymethyl-isoxazol-4-ylmethoxy]-N,N-dimethyl-nicotinamide] | 7.36
12 | O=C(c1ccc(OCc2c(-c3ccccn3)noc2CO)nc1)N1CCOCC1 [Example 54, [6-(5-Hydroxymethyl-3-pyridin-2-yl-isoxazol-4-ylmethoxy)-pyridin-3-yl]-morpholin-4-yl-methanone] | 7.17
13 | O=C(NC1CC1)c1ccc(OCc2c(-c3ccc(F)c(F)c3)noc2CO)nc1 [Example 33, N-Cyclopropyl-6-[3-(3,4-difluoro-phenyl)-5-hydroxymethyl-isoxazol-4-ylmethoxy]-nicotinamide] | 8.51
14 | CCCCc1noc(CO)c1COc1ccc(C(=O)N2CCS(=O)(=O)CC2)cn1 [Example 55, [6-(3-Butyl-5-hydroxymethyl-isoxazol-4-ylmethoxy)-pyridin-3-yl]-(1,1-dioxo-thiomorpholin-4-yl)-methanone] | 7.30

The next compounds have a higher pKi than those just listed; values first:

Row | pKi | SMILES
15 | 8.57 | O=C(NCC(F)(F)F)c1ccc(OCc2c(-c3ccc(F)c(F)c3)noc2CO)nc1 [Example 31, 6-[3-(3,4-Difluoro-phenyl)-5-hydroxymethyl-isoxazol-4-ylmethoxy]-N-(2,2,2-trifluoro-ethyl)-nicotinamide]
16 | 8.60 | CN(C)NC(=O)c1ccc(OCc2c(-c3ccccn3)noc2CO)nc1 [Example 46, 6-(5-Hydroxymethyl-3-pyridin-2-yl-isoxazol-4-ylmethoxy)-nicotinic acid N′,N′-dimethyl-hydrazide]
17 | 8.70 | O=C(NCC(F)(F)F)c1ccc(OCc2c(-c3ccc(Cl)cc3)noc2CO)nc1 [Example 21, 6-[3-(4-Chloro-phenyl)-5-hydroxymethyl-isoxazol-4-ylmethoxy]-N-(2,2,2-trifluoro-ethyl)-nicotinamide]
18 | 8.74 | CC1(NC(=O)c2ccc(OCc3c(-c4ccc(F)cc4)noc3CO)nc2)COC1 [Example 17, 6-[3-(4-Fluoro-phenyl)-5-hydroxymethyl-isoxazol-4-ylmethoxy]-N-(3-methyl-oxetan-3-yl)-nicotinamide]
19 | 8.74 | CC(NC(=O)c1ccc(OCc2c(-c3ccc(F)c(F)c3)noc2CO)nc1)C(F)(F)F (stereo not shown) [Example 32, 6-[3-(3,4-Difluoro-phenyl)-5-hydroxymethyl-isoxazol-4-ylmethoxy]-N-(2,2,2-trifluoro-1-methyl-ethyl)-nicotinamide]
20 | 8.77 | O=C(NCC1CC1)c1ccc(OCc2c(-c3ccc(F)cc3)noc2CO)nc1 [Example 6, N-Cyclopropylmethyl-6-[3-(4-fluoro-phenyl)-5-hydroxymethyl-isoxazol-4-ylmethoxy]-nicotinamide]
21 | 8.77 | C[C@H](NC(=O)c1ccc(OCc2c(-c3ccc(Cl)cc3)noc2CO)nc1)C(F)(F)F [Example 25, 6-[3-(4-Chloro-phenyl)-5-hydroxymethyl-isoxazol-4-ylmethoxy]-N-([S]-2,2,2-trifluoro-1-methyl-ethyl)-nicotinamide]
22 | 8.80 | O=C(NCCO)c1ccc(OCc2c(-c3ccccc3)noc2CO)nc1 [Example 2, N-(2-Hydroxy-ethyl)-6-(5-hydroxymethyl-3-phenyl-isoxazol-4-ylmethoxy)-nicotinamide]
23 | 8.85 | CC(NC(=O)c1ccc(OCc2c(-c3ccc(F)cc3)noc2CO)nc1)C(F)(F)F (stereo not shown) [Example 11, 6-[3-(4-Fluoro-phenyl)-5-hydroxymethyl-isoxazol-4-ylmethoxy]-N-(2,2,2-trifluoro-1-methyl-ethyl)-nicotinamide]
24 | 8.89 | O=C(NCC(F)(F)F)c1ccc(OCc2c(-c3ccc(F)cc3)noc2CO)nc1 [Example 7, 6-[3-(4-Fluoro-phenyl)-5-hydroxymethyl-isoxazol-4-ylmethoxy]-N-(2,2,2-trifluoro-ethyl)-nicotinamide]
25 | 8.89 | CC[C@@H](CO)NC(=O)c1ccc(OCc2c(-c3ccc(F)c(F)c3)noc2CO)nc1 [Example 38, 6-[3-(3,4-Difluoro-phenyl)-5-hydroxymethyl-isoxazol-4-ylmethoxy]-N-([S]-1-hydroxymethyl-propyl)-nicotinamide]
26 | 8.92 | O=C(N[C@@H]1CCC[C@H]1O)c1ccc(OCc2c(-c3ccc(Cl)cc3)noc2CO)nc1 (single isomer, unassigned) [Example 26, 6-[3-(4-Chloro-phenyl)-5-hydroxymethyl-isoxazol-4-ylmethoxy]-N-((1S,2S)-2-hydroxy-cyclopentyl)-nicotinamide or 6-[3-(4-Chloro-phenyl)-5-hydroxymethyl-isoxazol-4-ylmethoxy]-N-((1R,2R)-2-hydroxy-cyclopentyl)-nicotinamide]
27 | 8.96 | O=C(NC1CCOCC1)c1ccc(OCc2c(-c3ccccn3)noc2CO)nc1 [Example 47, 6-(5-Hydroxymethyl-3-pyridin-2-yl-isoxazol-4-ylmethoxy)-N-(tetrahydropyran-4-yl)-nicotinamide]
28 | 9.15 | Cn1cc(NC(=O)c2ccc(OCc3c(-c4ccc(Cl)cc4)noc3CO)nc2)cn1 [Example 24, 6-[3-(4-Chloro-phenyl)-5-hydroxymethyl-isoxazol-4-ylmethoxy]-N-(1-methyl-1H-pyrazol-4-yl)-nicotinamide]
29 | 9.15 | CC(C)NC(=O)c1ccc(OCc2c(-c3ccccn3)noc2CO)nc1 [Example 44, 6-(5-Hydroxymethyl-3-pyridin-2-yl-isoxazol-4-ylmethoxy)-N-isopropyl-nicotinamide]
30 | 9.22 | O=C(N[C@H]1CCC[C@@H]1O)c1ccc(OCc2c(-c3ccc(Cl)cc3)noc2CO)nc1 (single isomer, unassigned) [Example 27, 6-[3-(4-Chloro-phenyl)-5-hydroxymethyl-isoxazol-4-ylmethoxy]-N-([1R,2R]-2-hydroxy-cyclopentyl)-nicotinamide or 6-[3-(4-Chloro-phenyl)-5-hydroxymethyl-isoxazol-4-ylmethoxy]-N-([1S,2S]-2-hydroxy-cyclopentyl)-nicotinamide]
31 | 9.40 | CC(C)NC(=O)c1ccc(OCc2c(-c3ccc(Cl)cc3)noc2CO)nc1 [Example 19, 6-[3-(4-Chloro-phenyl)-5-hydroxymethyl-isoxazol-4-ylmethoxy]-N-isopropyl-nicotinamide]
